According to patent US7217682B2, “Cyclopropanecarboxylic acid esters and pest controllers containing the same” (Sumitomo Chemical Company, Limited, priority 2001, dated 2007):

What follows are compounds tested on Adult houseflies (assay: Knock-down test on adult houseflies, oil solution sprayed into a cubic chamber). Settings: 0.7 ml of 0.025% oil solution sprayed in 70 cm cubic chamber; 5 male and 5 female adult houseflies; counted for 10 minutes; average of two repeats.
Type: in vivo
Excerpt: A solution of 0.025 part of Present Compound 1 to 6 dissolved with 10 parts of dichloromethane was mixed with […] parts of deodorized kerosene to give a 0.025% oil solution.
Adult houseflies (5 males and 5 females) were left in a cubic chamber (70 cm at side). Seven-tenths (0.7) ml of the 0.025% oil solution of Present Compound 1 to 6 prepared above was sprayed with a spray gun at a pressure of 8.8×10^4 Pa from a small window on the side of the chamber. Then, the number of the knocked-down insects was counted at times for 10 minutes. The time for knocking down half of the tested insects (KT50) was calculated from the result.
Furthermore, the test was similarly done by using (4-methoxymethyl-2,3,5,6-tetrafluoro)phenylmethyl [1R[1α, 3β(Z)]]-2,2-dimethyl-3-(2-fluoro-3-methoxy-3-oxopropenyl)cyclopropanecarboxylate (hereinafter, referred to as Comparative Compound):
[drawing 12] described in GB patent publication 2,268,740 as a comparative compound. The tests were done twice repeat, and the KT50 values were calculated from the averages.

Structure (SMILES) | KT50 (time for knocking down half of the tested insects) [min]
COCc1c(F)c(F)c(COC(=O)C2C(/C=C(\F)C(=O)OC)C2(C)C)c(F)c1F (stereo not drawn) [Comparative Compound, (4-methoxymethyl-2,3,5,6-tetrafluoro)phenylmethyl [1R[1α, 3β(Z)]]-2,2-dimethyl-3-(2-fluoro-3-methoxy-3-oxopropenyl)cyclopropanecarboxylate, reference compound] | >10
CCOC(=O)/C(C#N)=C/C1C(C(=O)OCc2c(F)c(F)c(COC)c(F)c2F)C1(C)C (stereo not shown) [Present Compound 1, 4-methoxymethyl-2,3,5,6-tetrafluorobenzyl 2,2-dimethyl-3-((E)-2-cyano-3-ethoxy-3-oxo-1-propenyl) cyclopropanecarboxylate] | 1.5
COCc1c(F)c(F)c(COC(=O)C2C(/C=C(\C#N)C(=O)OC)C2(C)C)c(F)c1F (stereo not shown) [Present Compound 2, 4-methoxymethyl-2,3,5,6-tetrafluorobenzyl 2,2-dimethyl-3-((E)-2-cyano-3-methoxy-3-oxo-1-propenyl) cyclopropanecarboxylate] | 1.9
CCCOC(=O)/C(C#N)=C/C1C(C(=O)OCc2c(F)c(F)c(COC)c(F)c2F)C1(C)C (stereo not shown) [Present Compound 3, 4-methoxymethyl-2,3,5,6-tetrafluorobenzyl 2,2-dimethyl-3-((E)-2-cyano-3-propoxy-3-oxo-1-propenyl) cyclopropanecarboxylate] | 4.1
C=CCOC(=O)/C(C#N)=C/C1C(C(=O)OCc2c(F)c(F)c(COC)c(F)c2F)C1(C)C (stereo not shown) [Present Compound 4, 4-methoxymethyl-2,3,5,6-tetrafluorobenzyl 2,2-dimethyl-3-((E)-2-cyano-3-allyloxy-3-oxo-1-propenyl) cyclopropanecarboxylate] | 4.3
COCc1c(F)c(F)c(COC(=O)C2C(/C=C(\C#N)C(=O)OC(C)C)C2(C)C)c(F)c1F (stereo not shown) [Present Compound 5, 4-methoxymethyl-2,3,5,6-tetrafluorobenzyl 2,2-dimethyl-3-((E)-2-cyano-3-isopropoxy-3-oxo-1-propenyl) cyclopropanecarboxylate] | 1.5
COCc1c(F)c(F)c(COC(=O)C2C(/C=C(\C#N)C(=O)OC(C)(C)C)C2(C)C)c(F)c1F (stereo not shown) [Present Compound 6, 4-methoxymethyl-2,3,5,6-tetrafluorobenzyl 2,2-dimethyl-3-((E)-2-cyano-3-t-butyloxy-3-oxo-1-propenyl) cyclopropanecarboxylate] | 3.4
